Consider two compounds from patent publication US9844546B2, “Antibody against human HIF hydroxylase” (OXFORD UNIVERSITY INNOVATION LIMITED, priority 2001, dated 2017).

The subject of assay [1] is HIF-α prolyl-hydroxylase (HIF-PH) of cell extract. Description: Modifying activity (HIF-PH) of cell extract on HIF substrate (Gal/HIF-1α549-582/VP16 or 19:WT), pVHL capture assay. It counts as biochemical, mammalian. To be noted: titration, cell extract. As for the experimental part:
The unlabelled HIF-1α substrate was immunopurified on beads, washed, and aliquots incubated under different test conditions in buffer or cell extract. After further washing, the beads were assayed for ability to interact with 35-S labelled pVHL IVTT (21) which was then visualised by fluorography.
The capture of labelled pVHL by different HIF substrates was monitored after exposure to various test conditions.
We went on to test a series of 2-oxoglutarate analogues which act as competitive inhibitors of this class of enzyme (29) for ability to inhibit HIF-PH as assessed by the ability of cell extracts to modify either HIF polypeptide (19:WT) or a HIF fusion protein (Gal/HIF-1α549-582/VP16) so as to promote pVHL capture. […] In one such experiment the effect of N-oxalylglycine on pVHL capture by a biotinylated HIF polypeptides as substrate was monitored. The WT:19 and 19:Pro564Hyp polypeptides described above were used as substrates. […] The effect of dimethyl-oxalyglycine on HIF-1α expression was also studied. HIF-1α immunoblot analysis of extracts of Hep3B and U2OS cells exposed to dimethyl-oxalylgylcine (0, 0.1 or 1.0 mM) for 6 hours was carried out. […]

Assay [2] deals with HIF-α/pVHL interaction. In words: Interaction of HIF-1α and pVHL.HA reticulocyte IVTTs, anti-HA co-immunoprecipitation. It counts as biochemical, human. To be noted: 100 μM added to the HIF-1α IVTT. The procedure:
^35S-Methionine labelled […] subunits and pVHL.HA were produced separately by IVTT (in vitro transcription and translation) in reticulocyte lysates. IVTTs were performed under different conditions, mixed, and assayed for interaction by anti-HA co-immunoprecipitation. These in vitro assays allowed analysis of the HIFα/pVHL interaction using the recombinant proteins.
Labelled HIF-1α and pVHL.HA were generated separately in reticulocyte lysates (IVTT), in the presence or absence of Co (II), desferrioxamine, or Fe(II). Lysates were mixed in various combinations, and interactions assayed by anti-HA immunoprecipitation.
• 1. G. L. Semenza, Genes Dev 14, 1983-91. (2000). • 2. N. V. Iyer, et al., Genes Dev. 12, 149-162 (1997). • 3. E. Maltepe, J. V. Schmidt, D. Baunoch, C. A. Bradfield, M. C. Simon, Nature 386, 403-407 (1997). • 4. G. L. Wang, B.-H. Jiang, E. A. Rue, G. L. Semenza, Proc. Natl. Acad. Sci. USA 92, 5510-5514 (1995). • 5. S. Salceda, J. Caro, J. Biol. Chem. 272, 22642-22647 (1997). • 6. L. E. Huang, J. Gu, M. Schau, H. F. Bunn, Proc. Natl. Acad. Sci. USA 95, 7987-7992 (1998). • 7. M. S. Wiesener, et al., Blood 92, 2260-2268 (1998). • 8. P. H. Maxwell, et al., Nature 399, 271-275 (1999). • 9. K. Iwai, et al., Proc. Natl. Acad. Sci. USA 96, 12436-12441 (1999). • 10. J. Lisztwan, G. Imbert, C. Wirbelauer, M. Gstaiger, W. Krek, Genes Dev 13, 1822-33 (1999). • 11. M. E. Cockman, et al., J Biol Chem (2000). • 12. M. Ohh, et al., Nat Cell Biol 2, 423-7. (2000). • 13. T. Kamura, et al., Proc Natl Acad Sci USA 97, 10430-5. (2000). • 14. K. Tanimoto, Y. Makino, T. Pereira, L. Poellinger, Embo J 19, 4298-309. (2000). • 15. M. A. Goldberg, S. P. Dunning, H. F. Bunn, Science 242, 1412-1415 (1988). • 16. G. L. Wang, G. L. Semenza, Blood 82, 3610-3615 (1993). • 17. G. L. Semenza, Cell 98, 281-284 (1999). • 18. Hypoxia (<0.1% oxygen) was obtained in a workstation with O2, CO2 and temperature control (Ruskinn Technologies, Leeds, UK). For hypoxic harvest, buffers were preincubated in the chamber overnight. […]

In assay [3] the target is T1, HIF-1α/pVHL interaction (Homo sapiens, UniProt P40337).
T1 construct: made in house; host or cells: TNT rabbit reticulocyte lysate (Promega), in vitro transcription/translation
Description: Polypeptide blocking assay of HIF-1α and pVHL.HA IVTT mixture, anti-HA immunoprecipitation. It counts as binding. Conditions: cell extract supplemented with Fe(II). As for the experimental part: Further studies were performed using synthetic polypeptides as inhibitors of the HIF-1α/pVHL interaction (23). […] Results for a series of polypeptides derived from this domain are summarized in FIG. 1B and implicate a similar minimal interaction domain. […] This polypeptide comprises HIF-1α polypeptide residues 556 to 574 and its ability to block binding following exposure to a variety of direct oxidation conditions was assessed.
We synthesized a polypeptide (HIF-1α residues 556-574), containing a trans-4-hydroxy-S-proline residue at position 564 (19:Pro564Hyp), since the trans-4-hydroxylation is the commonest enzymatic proline oxidation (25). A polypeptide blocking assay was carried out using the 19:Pro564Hyp modified polypeptide and, as a control, the unmodified polypeptide without the trans-4-hydroxylation (19:WT). The 19:WT polypeptide was either incubated with cell extract before the binding assay or was untreated. The 19:Pro564Hyp polypeptide was added to a mixture of HIF-1α and pVHL-HA IVTTs at a concentration of 1, 0.25, 0.05 or 0.01 μM and the cell extract treated or untreated 19:WT polypeptide at a concentration of 0.5 μM. Interaction of HIF-1α with pVHL was then assayed by anti-HA immunoprecipitation. […] A pVHL capture assay was then carried out using biotinylated synthetic polypeptides. The same polypeptides, 19:Pro564Hyp and 19:WT were assessed for the ability to capture wild type or mutant (Pro86His) pVHL. […] In both cases capture was specific for wild type, as opposed to mutant, pVHL.
• 1. G. L. Semenza, Genes Dev 14, 1983-91. (2000). • 2. N. V. Iyer, et al., Genes Dev. 12, 149-162 (1997). • 3. E. Maltepe, J. V. Schmidt, D. Baunoch, C. A. Bradfield, M. C. Simon, Nature 386, 403-407 (1997). • 4. G. L. Wang, B.-H. Jiang, E. A. Rue, G. L. Semenza, Proc. Natl. Acad. Sci. USA 92, 5510-5514 (1995). • 5. S. Salceda, J. Caro, J. Biol. Chem. 272, 22642-22647 (1997). • 6. L. E. Huang, J. Gu, M. Schau, H. F. Bunn, Proc. Natl. Acad. Sci. USA 95, 7987-7992 (1998). • 7. M. S. Wiesener, et al., Blood 92, 2260-2268 (1998). • 8. P. H. Maxwell, et al., Nature 399, 271-275 (1999). • 9. K. Iwai, et al., Proc. Natl. Acad. Sci. USA 96, 12436-12441 (1999). • 10. J. Lisztwan, G. Imbert, C. Wirbelauer, M. Gstaiger, W. Krek, Genes Dev 13, 1822-33 (1999). • 11. M. E. Cockman, et al., J Biol Chem (2000). • 12. M. Ohh, et al., Nat Cell Biol 2, 423-7. (2000). • 13. T. Kamura, et al., Proc Natl Acad Sci USA 97, 10430-5. (2000). • 14. K. Tanimoto, Y. Makino, T. Pereira, L. Poellinger, Embo J 19, 4298-309. (2000). • 15. M. A. Goldberg, S. P. Dunning, H. F. Bunn, Science 242, 1412-1415 (1988). • 16. G. L. Wang, G. L. Semenza, Blood 82, 3610-3615 (1993). • 17. G. L. Semenza, Cell 98, 281-284 (1999). • 18. Hypoxia (<0.1% oxygen) was obtained in a workstation with O2, CO2 and temperature control (Ruskinn Technologies, Leeds, UK). For hypoxic harvest, buffers were preincubated in the chamber overnight. RCC4-VHL.HA, labelling conditions and co-immunoprecipitation assays have been described previously (11); in the current study 12.5 μM MG132 was used for proteasomal inhibition. For standard harvest, the cells were removed from the chamber after hypoxic exposure, prior to cell lysis. Co-immunoprecipitation assays on all lysates were performed at 4° C. under ambient oxygen conditions. […] When programming in hypoxia, reaction mix was preincubated in the workstation for 10 minutes before addition of the DNA template. […]

In assay [4] the test system is cytoplasmic extract-dependent modification of the 5′ VHL E3 target site. Description: Peptide competition of cytoplasmic extract-dependent modification of GAL-HIF-1α 344-553, in vitro VHL E3 ubiquitylation. It counts as biochemical, human. To be noted: 12.5 μM peptide, RCC4 cytoplasmic extract. The procedure: The E1 activating enzyme used in ubiquitylation assays was either obtained from Affiniti Research (Exeter, UK) or purified from BL21 (DE3) E. coli transfected with plasmid expressing His6-tagged mouse E1. His6-E1 was purified by Ni^2+-agarose affinity chromatography. After dialysis against phosphate buffered saline, glycerol was added to 10% (vol/vol) and 25 ng/μl aliquots stored at −80° C. Human CDC34 recombinant E2 enzyme was from Affiniti Research (Exeter, UK). VHL E3 was obtained by anti-HA immunoprecipitation from stably transfected 7860-VHLHA cell lysates (Iliopoulos et al). GAL-HIF-1α substrate was prepared by anti-GAL immunoprecipitation from [^35S] methionine-labeled TnT rabbit reticulocyte (Promega) translates. Each 40 μl ubiquitylation reaction consisted of 4 μl of 5 mg/ml ubiquitin, 4 μl of 10×ATP regenerating system (20 mM Tris pH7.5, 10 mM ATP, 10 mM magnesium acetate, 300 mM creatine phosphate, 0.5 mg/ml creatine phosphokinase), 2 μl, E1, 3 μl E2, 6 μl VHL E3 immunopurified on protein G sepharose, 6 μl GAL-HIF-1α substrate immunopurified on agarose beads. Reactions were incubated at 30° C. for 2 h with occasional mixing, stopped by the addition of SDS sample buffer and analysed by SDS-PAGE and autoradiography. Cytoplasmic extract-based ubiquitylation assays have been previously described (Cockman).
It has been shown above that the 3′ VHL E3 target site responds to oxygen level via hydroxylation at proline residue 564. This praline residue forms part of a potential motif conserved between the 5′ and 3′ target sites. Mutation of the corresponding proline residue (P402A) in the 5′ target site also results in functional inactivation. It was possible therefore that proline residue 402 was also a target for regulatory hydroxylation, To test this we asked whether polypeptides corresponding to the 3′ VHL E3 target site could interfere with the cytoplasmic extract-dependent modification of the 5′ VHL E3 target site. […]

T1 sequence (P40337 whole entry): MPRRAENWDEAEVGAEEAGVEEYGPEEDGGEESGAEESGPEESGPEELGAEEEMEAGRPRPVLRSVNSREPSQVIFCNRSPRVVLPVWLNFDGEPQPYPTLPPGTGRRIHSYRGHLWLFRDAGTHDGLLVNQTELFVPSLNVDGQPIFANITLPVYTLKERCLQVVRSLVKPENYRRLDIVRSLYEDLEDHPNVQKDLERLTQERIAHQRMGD

On to `[Cl][Fe][Cl]` [Fe(II), ferrous chloride, reference compound], for which the “Fe(II) supplementation giving full activation of modifying activity” value in assay [1] was found to be 5 µM. The “capture of HIF-1α by pVHL.HA” value in assay [2] is recorded as “greatly enhanced capture”.

Regarding “Pro564Gly: HIF-1α 556-574 polypeptide where the critical proline is mutated to glycine (DLDLEMLAGYIPMDDDFQL; UniProt Q16665 556-574, looked up, fragment P564G)”, the “blocking of HIF-1α/pVHL interaction by polypeptide after exposure to cell extract” value in assay [3] is “did not block”. Besides, the “competition of cytoplasmic extract effect on VHL-dependent ubiquitylation of GAL 344-553” value in assay [4] was “no effect”.
